This is an account of results in paper PMC3602143 (Bioorganic & medicinal chemistry letters, 2013).

The test system of data set [1] is strain of T. gondii engineered to express the bacterial GlpT. Particulars: ref [22]; cited from earlier work.
For data set [2] the following is noted: background statement; cited from earlier work.
Data set [3] deals with T. gondii. The data set can be described thus: T. gondii growth / proliferation. The data set is classed as cell-based, Toxoplasma gondii. Particulars: previous method of ref [22].
Data set [4] deals with bacteria including E. coli. Particulars: ref [11]; cited from earlier work.
Data set [5] has as its target T1, recombinant T. gondii DXR (TgDXR) (Toxoplasma gondii, UniProt S8ESX0).
T1 sequence (S8ESX0 187-632): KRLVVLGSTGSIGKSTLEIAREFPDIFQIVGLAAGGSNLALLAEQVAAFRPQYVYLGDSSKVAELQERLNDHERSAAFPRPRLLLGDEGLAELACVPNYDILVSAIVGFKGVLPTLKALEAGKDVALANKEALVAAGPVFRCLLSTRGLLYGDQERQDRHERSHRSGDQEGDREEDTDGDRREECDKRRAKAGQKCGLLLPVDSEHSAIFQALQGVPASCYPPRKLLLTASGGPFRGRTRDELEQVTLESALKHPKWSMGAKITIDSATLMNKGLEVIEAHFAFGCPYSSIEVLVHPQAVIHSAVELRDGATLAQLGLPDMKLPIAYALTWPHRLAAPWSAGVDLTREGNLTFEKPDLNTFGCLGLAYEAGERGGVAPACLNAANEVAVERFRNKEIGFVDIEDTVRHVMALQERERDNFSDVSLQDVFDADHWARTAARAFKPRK
In words: TgDXR enzyme inhibition assay. The class given is biochemical. Particulars: average of acetyl analogs 8 and 9 vs 6 and 7.

Data set [6] has as its system malaria parasites. Particulars: ref [16]; cited from earlier work.
In data set [7] the test system is EcDXR. Particulars: read-out: Km of EcDXR; substrate DXP; ref [13]; cited from earlier work.
Data set [8] deals with PfDXR. Particulars: read-out: Km of PfDXR; substrate DXP; ref [15]; cited from earlier work.
For data set [9], the system named is Mycobacterium tuberculosis DXR. Particulars: read-out: Km of Mycobacterium tuberculosis DXR; substrate DXP; ref [23]; cited from earlier work.
Substrate in data set [10]: CC(=O)[C@@H](O)[C@H](O)COP(=O)(O)O
In words: TgDXR enzyme inhibition assay. The class given is biochemical, Toxoplasma gondii. Particulars: other: DXP 10 to 450 μM, [Mg2+] = 4 mM, Michaelis-Menten fit; 30.0 °C.

As to `O=CN(O)CCCP(=O)(O)O` [Compound 1, Fosmidomycin], the “killing of GlpT-expressing T. gondii” value in [1] was “can effectively kill”. For the same molecule, the half-life in plasma result in data set [2] is on record as “very short”.
As for `O=c1ccc(-c2ccccc2)cn1O` [Compound 5], the “block of proliferation / activity against growth of T. gondii” value in data set [3] was “does not block proliferation”. Further, in data set [4], the antibacterial activity result is reported as “broad antibacterial activity”.
Turning to `CC(=O)N(O)CCC(c1cccnc1)P(=O)(O)O` (stereo not drawn) [Compound 8], the “fold less activity against TgDXR than formyl analogs 6 and 7” value in [5] is listed as ~ 11 fold.
Take `CC(=O)N(O)CCC(c1ccncc1)P(=O)(O)O` (stereo not drawn) [Compound 9]: the “fold less activity against TgDXR than formyl analogs 6 and 7” value in data set [5] is listed as ~ 11 fold.
Turning to `O=CN(O)CCC(c1ccc(Cl)c(Cl)c1)P(=O)(O)O` (stereo not drawn) [Compound 10], the antimalarial activities result in data set [6] is “potent”.
Consider `CC(=O)N(O)CCC(c1ccc(Cl)c(Cl)c1)P(=O)(O)O` (stereo not drawn) [Compound 11], for which the antimalarial activities entry in data set [6] is reported as “potent”.
Take `CC(=O)[C@@H](O)[C@H](O)COP(=O)(O)O` [DXP, 1-deoxy-D-xylulose-5-phosphate]: the Km (usually the concentration of substrate that gives half-maximal velocity) in data set [7] was 99 µM; in data set [8] it was 106 µM; in data set [9], 47 µM.

B1: recombinant T. gondii DXR (TgDXR) (Toxoplasma gondii ME49) (protein)
chain: T1 sequence (S8ESX0 187-632)
Regarding B1, the Km in data set [10] is 25.5 ± 3.7 µM.
